Experimental data: PubChem BioAssay AID1963825 (Molecular Pharmacology Branch, DTP, NCI, 2024)

Assay: Anticancer human tumor 997537-175-T-J1-PDC patient-derived colon adenocarcinoma cell line growth inhibition [POLQ]
Conditions: 997537-175-T-J1-PDC complex spheroid viability, combination with POLQ inhibitors; for IC50: curve of first compound; for viability, T/C: stronger effect = lower value
Summary of the method: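 Growth inhibition in 3D: complex spheroids (tumor PDC, HUVEC, MSC) treated with POLQ inhibitor combinations; where Cmax unknown, highest tested concentration 10 microM, except SN-38 at 1 microM.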

[1] = second compound 0.0316 µM, first compound 0.0316 µM
[2] = second compound 0.0316 µM, first compound 0.1 µM
[3] = second compound 0.0316 µM, first compound 0.316 µM
[4] = second compound 0.0316 µM, first compound 1 µM
[5] = second compound 0.0316 µM, first compound 3.16 µM
[6] = second compound 0.0316 µM, first compound 10 µM
[7] = second compound 0.1 µM, first compound 0.0316 µM
[8] = second compound 0.1 µM, first compound 0.1 µM
[9] = second compound 0.1 µM, first compound 0.316 µM
[10] = second compound 0.1 µM, first compound 1 µM
[11] = second compound 0.1 µM, first compound 3.16 µM
[12] = second compound 0.1 µM, first compound 10 µM
[13] = second compound 0.316 µM, first compound 0.0316 µM
[14] = second compound 0.316 µM, first compound 0.1 µM
[15] = second compound 0.316 µM, first compound 0.316 µM
[16] = second compound 0.316 µM, first compound 1 µM
[17] = second compound 0.316 µM, first compound 3.16 µM
[18] = second compound 0.316 µM, first compound 10 µM
[19] = second compound 1 µM, first compound 0.0316 µM
[20] = second compound 1 µM, first compound 0.1 µM
[21] = second compound 1 µM, first compound 0.316 µM
[22] = second compound 1 µM, first compound 1 µM
[23] = second compound 1 µM, first compound 3.16 µM
[24] = second compound 1 µM, first compound 10 µM
[25] = second compound 3.16 µM, first compound 0.0316 µM
[26] = second compound 3.16 µM, first compound 0.1 µM
[27] = second compound 3.16 µM, first compound 0.316 µM
[28] = second compound 3.16 µM, first compound 1 µM
[29] = second compound 3.16 µM, first compound 3.16 µM
[30] = second compound 3.16 µM, first compound 10 µM
[31] = second compound 10 µM, first compound 0.0316 µM
[32] = second compound 10 µM, first compound 0.1 µM
[33] = second compound 10 µM, first compound 0.316 µM
[34] = second compound 10 µM, first compound 1 µM
[35] = second compound 10 µM, first compound 3.16 µM
[36] = second compound 10 µM, first compound 10 µM
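Note: luminescence signal used as a surrogate for viable cells; spheroids exposed to drugs for seven days before readout.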

Question: For `O=c1[nH]cc(F)c(=O)[nH]1` + COC1C(OC(N)=O)C(O)C(Oc2ccc3c(O)c(NC(=O)c4ccc(O)c(CC=C(C)C)c4)c(=O)oc3c2C)OC1(C)C, which IC50 (second compound 0.0316 µM) is on record?
Answer: > 10 µM

Question: What about the IC50 (second compound 0.1 µM) of the same compound?
Answer: > 10 µM

Question: What about the IC50 (second compound 0.316 µM) of the same compound?
Answer: > 10 µM

Question: What about the IC50 (second compound 1 µM) of the same compound?
Answer: > 10 µM

Question: What about the IC50 (second compound 3.16 µM) of the same compound?
Answer: > 10 µM

Question: What about the IC50 (second compound 10 µM) of the same compound?
Answer: > 10 µM

Question: And the viability, T/C [1]?
Answer: 102%

Question: What about the viability, T/C [2] of the same compound?
Answer: 102%

Question: What about the viability, T/C [3] of the same compound?
Answer: 112%

Question: And the viability, T/C [4]?
Answer: 87.8%

Question: And the viability, T/C [5]?
Answer: 78.7%

Question: And the viability, T/C [6]?
Answer: 76.2%

Question: And the viability, T/C [7]?
Answer: 86.3%

Question: What about the viability, T/C [8] of the same compound?
Answer: 104%

Question: And the viability, T/C [9]?
Answer: 104%

Question: And the viability, T/C [10]?
Answer: 114%

Question: And the viability, T/C [11]?
Answer: 102%

Question: And the viability, T/C [12]?
Answer: 90.3%

Question: And the viability, T/C [13]?
Answer: 95.3%

Question: And the viability, T/C [14]?
Answer: 103%

Question: What about the viability, T/C [15] of the same compound?
Answer: 105%

Question: And the viability, T/C [16]?
Answer: 87.7%

Question: And the viability, T/C [17]?
Answer: 85.2%

Question: What about the viability, T/C [18] of the same compound?
Answer: 97.2%

Question: And the viability, T/C [19]?
Answer: 96.7%

Question: What about the viability, T/C [20] of the same compound?
Answer: 108%

Question: And the viability, T/C [21]?
Answer: 110%

Question: And the viability, T/C [22]?
Answer: 89.9%

Question: And the viability, T/C [23]?
Answer: 92.2%

Question: What about the viability, T/C [24] of the same compound?
Answer: 87.5%

Question: What about the viability, T/C [25] of the same compound?
Answer: 108%

Question: What about the viability, T/C [26] of the same compound?
Answer: 104%

Question: And the viability, T/C [27]?
Answer: 101%

Question: And the viability, T/C [28]?
Answer: 101%

Question: What about the viability, T/C [29] of the same compound?
Answer: 103%

Question: And the viability, T/C [30]?
Answer: 92.6%

Question: What about the viability, T/C [31] of the same compound?
Answer: 95.8%

Question: And the viability, T/C [32]?
Answer: 98.2%

Question: What about the viability, T/C [33] of the same compound?
Answer: 95.3%

Question: And the viability, T/C [34]?
Answer: 84.2%

Question: And the viability, T/C [35]?
Answer: 96.9%

Question: And the viability, T/C [36]?
Answer: 85.3%

Question: What does the source list for `O=C(c1cc(Cc2n[nH]c(=O)c3ccccc23)ccc1F)N1CCN(C(=O)C2CC2)CC1` + Cc1cccc(N(C)C(=O)C2C(O)CCN2c2nc(C)cc(C(F)(F)F)c2C#N)c1?
Answer: IC50 (second compound 0.0316 µM): > 10 µM; IC50 (second compound 0.1 µM): > 10 µM; IC50 (second compound 0.316 µM): > 10 µM; IC50 (second compound 1 µM): > 10 µM; IC50 (second compound 3.16 µM): > 10 µM; IC50 (second compound 10 µM): > 10 µM; viability, T/C [1]: 107%; viability, T/C [2]: 97.5%; viability, T/C [3]: 94.8%; viability, T/C [4]: 92.3%; viability, T/C [5]: 102%; viability, T/C [6]: 103%; viability, T/C [7]: 91.9%; viability, T/C [8]: 108%; viability, T/C [9]: 102%; viability, T/C [10]: 105%; viability, T/C [11]: 101%; viability, T/C [12]: 86.2%; viability, T/C [13]: 107%; viability, T/C [14]: 105%; viability, T/C [15]: 109%; viability, T/C [16]: 99%; viability, T/C [17]: 118%; viability, T/C [18]: 110%; viability, T/C [19]: 99.1%; viability, T/C [20]: 102%; viability, T/C [21]: 109%; viability, T/C [22]: 97.1%; viability, T/C [23]: 100%; viability, T/C [24]: 87.5%; viability, T/C [25]: 101%; viability, T/C [26]: 108%; viability, T/C [27]: 92.2%; viability, T/C [28]: 92.1%; viability, T/C [29]: 97.5%; viability, T/C [30]: 103%; viability, T/C [31]: 99.3%; viability, T/C [32]: 87.3%; viability, T/C [33]: 91.1%; viability, T/C [34]: 97%; viability, T/C [35]: 87.1%; viability, T/C [36]: 96.4%

Question: For `C=CC(=O)N1CCN(c2nc(=O)n(-c3c(C)ccnc3C(C)C)c3nc(-c4c(O)cccc4F)c(F)cc23)C(C)C1` (stereo not drawn) + Nc1ccc(C#CCN(C(=O)Cc2ncc(C(F)(F)F)cc2C(F)(F)F)c2ccc(F)cc2)nn1, which IC50 (second compound 0.0316 µM) is on record?
Answer: > 10 µM

Question: And the IC50 (second compound 0.1 µM)?
Answer: > 10 µM

Question: And the IC50 (second compound 0.316 µM)?
Answer: > 10 µM

Question: What about the IC50 (second compound 1 µM) of the same compound?
Answer: > 10 µM

Question: What about the IC50 (second compound 3.16 µM) of the same compound?
Answer: > 10 µM

Question: And the IC50 (second compound 10 µM)?
Answer: > 10 µM

Question: What about the viability, T/C [1] of the same compound?
Answer: 106%

Question: And the viability, T/C [2]?
Answer: 97.1%

Question: What about the viability, T/C [3] of the same compound?
Answer: 95.4%

Question: And the viability, T/C [4]?
Answer: 108%

Question: What about the viability, T/C [5] of the same compound?
Answer: 93.8%

Question: What about the viability, T/C [6] of the same compound?
Answer: 100%

Question: And the viability, T/C [7]?
Answer: 103%

Question: What about the viability, T/C [8] of the same compound?
Answer: 91.1%

Question: And the viability, T/C [9]?
Answer: 102%

Question: And the viability, T/C [10]?
Answer: 96.7%

Question: What about the viability, T/C [11] of the same compound?
Answer: 111%

Question: And the viability, T/C [12]?
Answer: 107%

Question: And the viability, T/C [13]?
Answer: 96.6%

Question: What about the viability, T/C [14] of the same compound?
Answer: 102%

Question: What about the viability, T/C [15] of the same compound?
Answer: 103%

Question: What about the viability, T/C [16] of the same compound?
Answer: 101%

Question: And the viability, T/C [17]?
Answer: 90.9%

Question: And the viability, T/C [18]?
Answer: 94%

Question: And the viability, T/C [19]?
Answer: 102%

Question: What about the viability, T/C [20] of the same compound?
Answer: 111%

Question: What about the viability, T/C [21] of the same compound?
Answer: 109%

Question: What about the viability, T/C [22] of the same compound?
Answer: 97.2%

Question: And the viability, T/C [23]?
Answer: 96.9%

Question: And the viability, T/C [24]?
Answer: 97.6%

Question: And the viability, T/C [25]?
Answer: 96.3%

Question: What about the viability, T/C [26] of the same compound?
Answer: 106%

Question: What about the viability, T/C [27] of the same compound?
Answer: 103%

Question: What about the viability, T/C [28] of the same compound?
Answer: 96.8%

Question: What about the viability, T/C [29] of the same compound?
Answer: 106%

Question: And the viability, T/C [30]?
Answer: 98.2%

Question: What about the viability, T/C [31] of the same compound?
Answer: 101%

Question: What about the viability, T/C [32] of the same compound?
Answer: 106%

Question: And the viability, T/C [33]?
Answer: 104%

Question: And the viability, T/C [34]?
Answer: 95.3%

Question: What about the viability, T/C [35] of the same compound?
Answer: 97.6%

Question: And the viability, T/C [36]?
Answer: 90.8%

Question: Which results are given for `CC1COCCN1c1cc(-c2ccnn2C)c2ccnc(-c3ccn[nH]3)c2n1` (stereo not drawn) + Cc1cccc(N(C)C(=O)C2C(O)CCN2c2nc(C)cc(C(F)(F)F)c2C#N)c1?
Answer: IC50 (second compound 0.0316 µM): > 10 µM; IC50 (second compound 0.1 µM): > 10 µM; IC50 (second compound 0.316 µM): 1.48 µM; IC50 (second compound 1 µM): > 10 µM; IC50 (second compound 3.16 µM): 0.761 µM; IC50 (second compound 10 µM): > 10 µM; viability, T/C [1]: 88.5%; viability, T/C [2]: 86.1%; viability, T/C [3]: 71.5%; viability, T/C [4]: 43.5%; viability, T/C [5]: 45.5%; viability, T/C [6]: 63.2%; viability, T/C [7]: 87.9%; viability, T/C [8]: 87%; viability, T/C [9]: 73.4%; viability, T/C [10]: 53.4%; viability, T/C [11]: 53.2%; viability, T/C [12]: 54.7%; viability, T/C [13]: 94.2%; viability, T/C [14]: 93.5%; viability, T/C [15]: 74%; viability, T/C [16]: 50.5%; viability, T/C [17]: 52.4%; viability, T/C [18]: 45.3%; viability, T/C [19]: 96.6%; viability, T/C [20]: 84.9%; viability, T/C [21]: 48.8%; viability, T/C [22]: 47.1%; viability, T/C [23]: 61.4%; viability, T/C [24]: 65.2%; viability, T/C [25]: 107%; viability, T/C [26]: 80.8%; viability, T/C [27]: 53.7%; viability, T/C [28]: 30.5%; viability, T/C [29]: 67.1%; viability, T/C [30]: 48.6%; viability, T/C [31]: 72.1%; viability, T/C [32]: 80.7%; viability, T/C [33]: 54.8%; viability, T/C [34]: 42%; viability, T/C [35]: 68.9%; viability, T/C [36]: 50.1%
